PMC11283679 (Gastroenterology, 2023)
Ends that are not written are not given here. C(BODIPY) = not defined here

Tested on: NHE3
Assay type: cell-based, human
Settings: for activity: read-out: Stimulation of NHE3 activity (%)

| Substance | EC50 | activity | Stimulation of NHE3 activity (%) |
| --- | --- | --- | --- |
| N3SP-1Δ5: N3SP-1 with truncation of 5 N-terminal aa (TPRPSTVEASVSYLLRESASAVCLDMQSLEQRR-{C(BODIPY)}; reading uncertain; UniProt P26432 573-605, looked up, fragment) | 154 nM | 39% | – |
| N3SP-1Δ6: N3SP-1 with truncation of 6 N-terminal aa (PRPSTVEASVSYLLRESASAVCLDMQSLEQRR-{C(BODIPY)}; reading uncertain; UniProt P26432 574-605, looked up, fragment) | 151 nM | 40% | – |
| N3SP-1Δ8: N3SP-1 with truncation of 8 N-terminal aa (PSTVEASVSYLLRESASAVCLDMQSLEQRR-{C(BODIPY)}; reading uncertain; UniProt P26432 576-605, looked up, fragment) | – | 9% | – |
| N3SP-1Δ9: N3SP-1 with truncation of 9 N-terminal aa (STVEASVSYLLRESASAVCLDMQSLEQRR-{C(BODIPY)}; reading uncertain; UniProt P26432 577-605, looked up, fragment) | – | – | No |
| N3SP-1Δ18: N3SP-1 with truncation of 18 N-terminal aa (LLRESASAVCLDMQSLEQRR-{C(BODIPY)}; reading uncertain; UniProt P26432 586-605, looked up, fragment) | – | – | No |
